Experimental data from patent publication US9499729B2, “Compositions and methods containing fluorine substituted olefins” (HONEYWELL INTERNATIONAL INC., priority 2006, dated 2016).
One block for each compound: values may come before it.

Assays:
[1] = Solubility of Artemisinin in the extractant, solvent added to weighed sample until dissolved; type: physicochemical
Excerpt: A medicament, particularly a plant-derived Artemisinin which is an anti-malarial drug, is extracted from the Artemisia annua plant. A sample of Artemisinin was weighed into a vial.

[2] = Compatibility/stability of refrigerant with lubricating oil in contact with aluminum, copper and steel coupons, sealed tube, one week, visual observation; type: physicochemical; details: one week at 350° C., liquid contents turn black
Experimental: The compatibility of the refrigerant compounds and compositions of the present invention with PAG lubricating oils while in contact with metals used in refrigeration and air conditioning systems is tested at 350° C., representing conditions much more severe than are found in many refrigeration and air conditioning applications.
Aluminum, copper and steel coupons are added to heavy walled glass tubes. Two grams of oil are added to the tubes. The tubes are then evacuated and one gram of refrigerant is added. The tubes are put into an oven at 350° F. for one week and visual observations are made. At the end of the exposure period, the tubes are removed.
This procedure was done for the following combinations of oil and the compound of the present invention: • a) HFC-1234ze and GM Goodwrench PAG oil • b) HFC1243 zf and GM Goodwrench oil PAG oil • c) HFC-1234ze and MOPAR-56 PAG oil • d) HFC-1243 zf and MOPAR-56 PAG oil • e) HFC-1225 ye and MOPAR-56 PAG oil.
Aluminum, copper and steel coupons are added to a heavy walled glass tube with mineral oil and CFC-12 and heated for one week at 350° C., as in Example 3. At the end of the exposure period, the tube is removed and visual observations are made.

[3] = Toxicity as stated by applicants (no method given)
[4] = Flammability / flammability limit (ASTM E-681); type: physicochemical
Experimental: Flammability is another important property for many applications. That is, it is considered either important or essential in many applications, including particularly in heat transfer and blowing agent applications, to use compositions which are of low flammability or are non-flammable. Thus, it is frequently beneficial to use in such compositions compounds which are nonflammable. As used herein, the term “nonflammable” refers to compounds or compositions which are determined to be nonflammable as determined in accordance with ASTM standard E-681, dated 2002, which is incorporated herein by reference. Unfortunately, many HFC's which might otherwise be desirable for used in refrigerant or foam blowing agent compositions are not nonflammable. For example, the fluoroalkane difluoroethane (HFC-152a) and the fluoroalkene 1,1,1-trifluorpropene (HFO-1243zf) are each flammable and therefore not viable for use in many applications.

[5] = Miscibility with refrigeration lubricants, sealed glass tubes, visual observation of liquid phases; type: physicochemical
Experimental: The miscibility of HFO-1225ye and HFO-1234ze with various refrigeration lubricants is tested. […] For each refrigerant/oil combination, three compositions are tested, namely 5, 20 and 50 weight percent of lubricant, with the balance of each being the compound of the present invention being tested
The lubricant compositions are placed in heavy-walled glass tubes. The tubes are evacuated, the refrigerant compound in accordance with the present invention is added, and the tubes are then sealed. The tubes are then put into an air bath environmental chamber, the temperature of which is varied from about −50° C. to 70° C. At roughly 10° C. intervals, visual observations of the tube contents are made for the existence of one or more liquid phases.

[6] = Solubility of Jasmone in the fluoroolefin, sealed glass tube, frozen and thawed; type: physicochemical
Experimental: The compositions of the present invention also provide advantage when used as part of, and in particular as a carrier for, flavor formulations and fragrance formulations. […] 1.73 grams of R-1234ze were added to the glass tube. The tube was then frozen and sealed. […] The solution contained 20 wt. % Jasome and 80 wt. % R-1234ze, thus establishing favorable use a carrier for flavor formulations and fragrances. It also establishes its potential as an extractant of biologically active compounds (such as Biomass) and fragrances, including from plant matter. In certain embodiments, it may be preferred to use the present composition for in extraction applications with the present fluid in its supercritical state. This an other applications of involving use of the present compositions in the supercritical or near supercritical state are described hereinafter.
Approximately 0.39 grams of Jasmone were put into a heavy walled glass tube and approximately 1.73 grams of transHFC-1233zd were added to the glass tube. The tube was then frozen and sealed. […] The solution contained about 20 wt. % Jasome and about 80 wt. % transHFCO-1233zd.
Approximately 0.39 grams of Jasmone are put into a heavy walled glass tube and approximately 1.73 grams of cisHFC-1233zd are added to the glass tube. The tube is then frozen and sealed. […] The solution contains about 20 wt. % Jasmone and about 80 wt. % cisHFCO-1233zd.

[7] = Dissolution of silicone lubricant in the solvent; type: physicochemical; details: silicone oil added to a concentration of about 10 weight percent
Experimental: A compound of Formula II, namely, transHFCO-1233zd was transferred to a glass container. A silicon lubricant, particularly a high-viscosity (12,500 cP) silicone oil, was added to the transHFCO-1233zd solvent to a concentration of about 10 weight percent.
A compound of Formula II, namely, cisHFCO-1233zd is transferred to a glass container. A silicon lubricant, particularly a high-viscosity (12,500 cP) silicone oil is added to the cisHFCO-1233zd solvent to a concentration of about 10 weight percent.
(§1) A combination of transHFCO-1233zd and trans-1,2-dichloroethylene are prepared in transHFCO-1233zd:trans-1,2-dichloroethylene weight ratios of 25:75 and 50:50. Each combination is then added to a glass container. A silicon lubricant, particularly a high-viscosity (12,500 cP) silicone oil is added to each solvent to a concentration of about 10 weight percent.
as §1, with “cisHFCO-1233zd” for “transHFCO-1233zd”, “cisHFCO-1233zd:trans-1,2-dichloroethylene” for “transHFCO-1233zd:trans-1,2-dichloroethylene”

[8] = Dissolution of synthetic PAG lubricant in the solvent; type: physicochemical; details: PAG lubricant ND-8; combinations in approximate weight ratios: /methanol 98:2, /pentane 96:4, /methanol/pentane 92:2:6
Experimental: A synthetic lubricant, specifically polyalkyleneglycol (PAG) lubricant, and more specifically a PAG consisting essentially of 2 or more oxypropylene groups and having a viscosity of from about 10 to about 200 centistokes at about 37° C. (sold under the trade designation ND-8 by Idemitsu Kosan) are added to a vial containing transHFCO-1233zd. […] The properties of the synthetic lubricant ND-8 are identified below in Table 11 below.
A synthetic lubricant, specifically polyalkyleneglycol (PAG) lubricant, and more specifically a PAG consisting essentially of 2 or more oxypropylene groups and having a viscosity of from about 10 to about 200 centistokes at about 37° C. (sold under the trade designation ND-8 by Idemitsu Kosan) are added to a vial containing cisHFCO-1233zd.
The PAG lubricant described in Example 45 above is added to vials containing, respectively, transHFCO-1233zd/methanol in an approximate 98:2 weight ratio, transHFCO-1233zd/pentane in an approximate 96:4 weight ration and transHFCO-1233zd/methanol/pentane in an approximate 92:2:6 weight ratio.
The PAG lubricant described in Example 45 above is added to vials containing, respectively, cisHFCO-1233zd/methanol in an approximate 98:2 weight ratio, cisHFCO-1233zd/pentane in an approximate 96:4 weight ration and cisHFCO-1233zd/methanol/pentane in an approximate 92:2:6 weight ratio.

- solubility in cisHFCO-1233zd (soluble up to) ([1]; solvent cisHFCO-1233zd): approximately 3 weight percent
- solubility in transHFCO-1233zd (soluble up to) ([1]; solvent transHFCO-1233zd): approximately 3 weight percent
Structure (SMILES): C[C@@H]1CC[C@H]2[C@@H](C)C(=O)O[C@@H]3O[C@@]4(C)CC[C@@H]1[C@]32OO4 [Artemisinin]

Structure (SMILES): FC(F)(Cl)Cl [CFC-12, Dichlorodifluoromethane]
- visual observation of tube contents (stability with mineral oil and metals) [2]: severe decomposition

Structure (SMILES): FC(F)(F)C=CCl [HCFO-1233zd, 1,1,1-trifluo-3,chloro-propene]
- toxicity [3]: relatively low toxicity
- flammability [4]: relatively low flammability

Structure (SMILES): FC=C(F)C(F)(F)F [HFO-1225ye, 1,1,1,2,3 pentafluoropropene]
- degree of toxicity in comparison to CF3CH═CF2 (HFO-1225zc) ([3]; pentafluoropropene with a hydrogen substituent on the terminal unsaturated carbon): relatively low degree of toxicity
- miscibility with polyalkylene glycol ([5]; 50 weight percent concentration of the PAG in refrigerant, at 60°): miscible
- miscibility with polyalkylene glycol ([5]; at 70° C., from 5 to 50 weight percent lubricant in refrigerant): miscible
- miscibility with polyalkylene glycol ([5]; from −20 to 50° C.): partially miscible
- miscibility with polyalkylene glycol ([5]; temperature range of −50° C. to −30° C.): immiscible

Structure (SMILES): FC=CC(F)(F)F [HFO-1234ze, 1,1,1,3-tetrafluoropropene]
- toxicity [3]: relatively low toxicity
- flammability [4]: relatively low flammability

- liquid phases of mixture with R-1234ze upon thawing ([6]; 0.39 grams Jasmone and 1.73 grams R-1234ze: 20 wt. % Jasmone, 80 wt. % R-1234ze): one liquid phase
- solubility in cisHFCO-1233zd (soluble up to) ([6]; solvent cisHFCO-1233zd, one liquid phase): about 20 weight percent
- solubility in transHFCO-1233zd (soluble up to) ([6]; solvent transHFCO-1233zd, one liquid phase): about 20 weight percent
Structure (SMILES): CC/C=C\CC1=C(C)CCC1=O [Jasmone]

Structure (SMILES): FC(F)(F)/C=C\Cl [transHFCO-1233zd, 1,1,1-trifluo,3-chlororopropene]
- solution formed with silicone oil [7]: homogeneous, single-phase solution
- concentration of PAG at which a homogeneous, single-phase solution is formed [8]: greater than 10 % by weight
